A short description of series [1]: Crystal form after drying under reduced pressure (powder X-ray diffraction). It counts as physicochemical. The protocol: The amorphous powder of Compound 1 (10.7 mg) was dissolved in 2-propanol (32.1 μL), and about 0.1 mg of the crystal obtained in Example 3-1 was added. Thereafter, heptane ([…]) was added, and the mixture was shaken at room temperature for 3 hours. Furthermore, heptane (21.4 μL) was added, and after shaking at room temperature for 2 hours, heptane (21.4 μL) was added and the mixture was shaken at room temperature for 3 hours. Heptane (21.4 μL) was further added, and the mixture was shaken at room temperature for 15 hours, thereby obtaining a crystal (form E) of compound 1. Single crystal X-ray structural analysis was performed on the obtained crystal (Example 4-8), and it was confirmed to be a 2-propanol/heptane/water solvate. […] The obtained crystal (form E) was dried under reduced pressure, and powder X-ray diffraction measurement was performed (Example 4-3).
The amorphous powder of Compound 1 (9.0 mg) was dissolved in ethanol (27.0 μL), heptane (27.0 μL) was added, and the mixture was shaken at room temperature for 4 minutes. About 0.1 mg of the crystal obtained in Example 3-4 was added, and the mixture was shaken at room temperature for 1 minute to obtain a crystal of compound 1. Single crystal X-ray structural analysis was performed (Example 4-9), confirming that the obtained crystal is an ethanol/water solvate crystal (form H). […] The obtained crystal (form H) was dried under reduced pressure, and powder X-ray diffraction measurement was performed (Example 4-3).
The amorphous powder of Compound 1 (10.9 mg) was dissolved in ethyl acetate (32.7 μL), heptane (32.7 μL) was added, and the mixture was shaken at room temperature for 4 minutes. About 0.1 mg of the crystal obtained in Example 3-5 was added, and the mixture was shaken at room temperature for 1 minute, thereby obtaining a crystal of compound 1. Single crystal X-ray structural analysis was performed (Example 4-9), confirming that the obtained crystal is an ethyl acetate/water solvate crystal (form C). […] The obtained crystal (form C) was dried under reduced pressure, and powder X-ray diffraction measurement was performed (Example 4-3).
The crystal (form A, 6.8 mg) of compound 1 obtained in Example 3-8 was dissolved in dimethyl sulfoxide (0.12 mL), and the mixture was shaken and stirred at room temperature for 13 days. Furthermore, water (1 μL) was added and the mixture was stirred at room temperature for 34 days to obtain a crystal of compound 1. The obtained crystal was confirmed to be a dimethyl sulfoxide/water solvate crystal (form L) by single crystal X-ray structural analysis (Example 4-8). […] Powder X-ray diffraction measurement (Example 4-3) on the crystal obtained by performing the same procedure confirmed that the form L is a solvate crystal that is amorphized by drying under reduced pressure.
To the crystal (form B, 45.8 mg) of compound 1, propylene glycol (0.12 mL) was added, and the mixture was stirred at room temperature for 5 minutes. Furthermore, propylene glycol (0.020 mL) was added, and the mixture was stirred at 40° C. for 5 minutes. Thereafter, propylene glycol (0.070 mL) was added, the mixture was stirred at 40° C. for 5 minutes and further allowed to stand still for 5 hours. Propylene glycol (0.070 mL) was further added, and the mixture was stirred at 35° C. for overnight. Then, propylene glycol (0.070 mL) was added and the mixture was stirred for about 1 minute to obtain a wet powder of compound 1. […]

Series [2] in a line: Thermogravimetry-differential thermal analysis (TG-DTA). It counts as physicochemical. The conditions noted are these: 10° C./min, nitrogen, at 157° C., Example 3-17. The method, then: The thermogravimetry-differential thermal analysis (TG-DTA) for Example 3-8, Example 3-9, Example 3-12, Example 3-13, Example 3-17, and Example 3-19 was performed under the following conditions. • Measurement apparatus: STA7200RV+AS-3T (manufactured by Hitachi High-Tech Science Corporation) • Measurement range: 30 to 350° C. • Heating rate: 10° C./min • Atmosphere: nitrogen • Measurement: The sample was weighed in an open aluminum pan and covered with a mesh to perform the measurement.

For the molecule `CCC[C@H]1C(=O)N[C@@H]([C@@H](C)CC)C(=O)N2CCC[C@H]2C(=O)N(C)[C@H]2C/C=C\CCN(C2=O)[C@@H](Cc2ccc(C(F)(F)F)cc2)C(=O)N(C)CC(=O)N[C@@H](CCc2ccc(C(F)(F)F)c(OC)c2)C(=O)N2C[C@H](OCC)C[C@H]2C(=O)N(C)C2(CCC2)C(=O)N(C)[C@@H](C2CCCC2)C(=O)N(C)[C@H](C(=O)N(C)C)CC(=O)N1C` [form C], the “transformation after drying under reduced pressure” value in series [1] (drying under reduced pressure) is recorded as “transformed into the hydrate crystal (form B)”. The same measure, in the same setting: to `CCC[C@H]1C(=O)N[C@@H]([C@@H](C)CC)C(=O)N2CCC[C@H]2C(=O)N(C)[C@H]2C/C=C\CCN(C2=O)[C@@H](Cc2ccc(C(F)(F)F)cc2)C(=O)N(C)CC(=O)N[C@@H](CCc2ccc(C(F)(F)F)c(OC)c2)C(=O)N2C[C@H](OCC)C[C@H]2C(=O)N(C)C2(CCC2)C(=O)N(C)[C@@H](C2CCCC2)C(=O)N(C)[C@H](C(=O)N(C)C)CC(=O)N1C` [form E] belongs “transformed into the hydrate crystal (form A)”; to `CCC[C@H]1C(=O)N[C@@H]([C@@H](C)CC)C(=O)N2CCC[C@H]2C(=O)N(C)[C@H]2C/C=C\CCN(C2=O)[C@@H](Cc2ccc(C(F)(F)F)cc2)C(=O)N(C)CC(=O)N[C@@H](CCc2ccc(C(F)(F)F)c(OC)c2)C(=O)N2C[C@H](OCC)C[C@H]2C(=O)N(C)C2(CCC2)C(=O)N(C)[C@@H](C2CCCC2)C(=O)N(C)[C@H](C(=O)N(C)C)CC(=O)N1C` [form H], “transformed into the hydrate crystal (form B)”.

For `CCC[C@H]1C(=O)N[C@@H]([C@@H](C)CC)C(=O)N2CCC[C@H]2C(=O)N(C)[C@H]2C/C=C\CCN(C2=O)[C@@H](Cc2ccc(C(F)(F)F)cc2)C(=O)N(C)CC(=O)N[C@@H](CCc2ccc(C(F)(F)F)c(OC)c2)C(=O)N2C[C@H](OCC)C[C@H]2C(=O)N(C)C2(CCC2)C(=O)N(C)[C@@H](C2CCCC2)C(=O)N(C)[C@H](C(=O)N(C)C)CC(=O)N1C` [form L], the “transformation after drying under reduced pressure” value in series [1] (drying under reduced pressure) is listed as “amorphized”. For the molecule `CCC[C@H]1C(=O)N[C@@H]([C@@H](C)CC)C(=O)N2CCC[C@H]2C(=O)N(C)[C@H]2C/C=C\CCN(C2=O)[C@@H](Cc2ccc(C(F)(F)F)cc2)C(=O)N(C)CC(=O)N[C@@H](CCc2ccc(C(F)(F)F)c(OC)c2)C(=O)N2C[C@H](OCC)C[C@H]2C(=O)N(C)C2(CCC2)C(=O)N(C)[C@@H](C2CCCC2)C(=O)N(C)[C@H](C(=O)N(C)C)CC(=O)N1C` [form M], the “transformation after drying under reduced pressure” value in series [1] (dried under reduced pressure at room temperature for overnight) is given as “transformed into a form N crystal”. Turning to `CCC[C@H]1C(=O)N[C@@H]([C@@H](C)CC)C(=O)N2CCC[C@H]2C(=O)N(C)[C@H]2C/C=C\CCN(C2=O)[C@@H](Cc2ccc(C(F)(F)F)cc2)C(=O)N(C)CC(=O)N[C@@H](CCc2ccc(C(F)(F)F)c(OC)c2)C(=O)N2C[C@H](OCC)C[C@H]2C(=O)N(C)C2(CCC2)C(=O)N(C)[C@@H](C2CCCC2)C(=O)N(C)[C@H](C(=O)N(C)C)CC(=O)N1C` [form N], in series [2], the weight reduction entry is reported as “about 11%”.
